Measured values taken from PubChem BioAssay AID1259407 (Chemical Carcinogenesis Research Information System (CCRIS), 2018).
Activity calls are given as the source filed them. No rule for the calls is given here.

Test system: CCRIS mutagenicity, Ames/micronucleus/aberration tests
Test: CCRIS mutagenicity studies
[1] = Test System: AMES SALMONELLA TYPHIMURIUM, Strain/Indicator: TA98, Metabolic Activation: NONE, Method: STANDARD PLATE
[2] = Test System: AMES SALMONELLA TYPHIMURIUM, Strain/Indicator: TA100, Metabolic Activation: NONE, Method: STANDARD PLATE

Measured: mutagenic call

CC(C)(C)NC(=O)[C@H]1CC[C@H]2[C@@H]3CC=C4C=C(C(=O)O)CC[C@]4(C)[C@H]3CC[C@]12C
inactive: Test System: AMES SALMONELLA TYPHIMURIUM, Strain/Indicator: TA97, Metabolic Activation: NONE, Method: STANDARD PLATE inactive; negative | Test System: AMES SALMONELLA TYPHIMURIUM, Strain/Indicator: TA97, Metabolic Activation: RAT LIVER S-9, AROCLOR 1254, Method: PREINCUBATION inactive; negative | [1] inactive; negative | Test System: AMES SALMONELLA TYPHIMURIUM, Strain/Indicator: TA98, Metabolic Activation: RAT LIVER S-9, AROCLOR 1254, Method: PREINCUBATION inactive; negative | [2] inactive; negative | Test System: AMES SALMONELLA TYPHIMURIUM, Strain/Indicator: TA100, Metabolic Activation: RAT LIVER S-9, AROCLOR 1254, Method: PREINCUBATION inactive; negative | Test System: AMES SALMONELLA TYPHIMURIUM, Strain/Indicator: TA102, Metabolic Activation: NONE, Method: STANDARD PLATE inactive; negative | Test System: AMES SALMONELLA TYPHIMURIUM, Strain/Indicator: TA102, Metabolic Activation: RAT LIVER S-9, AROCLOR 1254, Method: PREINCUBATION inactive; negative

COC(=O)c1ccc(O)cc1
inactive: [1] inactive; negative | Test System: AMES SALMONELLA TYPHIMURIUM, Strain/Indicator: TA98, Metabolic Activation: RAT, LIVER, S-9, AROCLOR 1254, Method: STANDARD PLATE inactive; negative | [2] inactive; negative | Test System: AMES SALMONELLA TYPHIMURIUM, Strain/Indicator: TA100, Metabolic Activation: RAT, LIVER, S-9, AROCLOR 1254, Method: STANDARD PLATE inactive; negative | Test System: AMES SALMONELLA TYPHIMURIUM, Strain/Indicator: TA1535, Metabolic Activation: NONE, Method: STANDARD PLATE inactive; negative | Test System: AMES SALMONELLA TYPHIMURIUM, Strain/Indicator: TA1535, Metabolic Activation: RAT, LIVER, S-9, AROCLOR 1254, Method: STANDARD PLATE inactive; negative | Test System: AMES SALMONELLA TYPHIMURIUM, Strain/Indicator: TA1537, Metabolic Activation: NONE, Method: STANDARD PLATE inactive; negative | Test System: AMES SALMONELLA TYPHIMURIUM, Strain/Indicator: TA1537, Metabolic Activation: RAT, LIVER, S-9, AROCLOR 1254, Method: STANDARD PLATE inactive; negative | Test System: AMES SALMONELLA TYPHIMURIUM, Strain/Indicator: TA1538, Metabolic Activation: NONE, Method: STANDARD PLATE inactive; negative | Test System: AMES SALMONELLA TYPHIMURIUM, Strain/Indicator: TA1538, Metabolic Activation: RAT, LIVER, S-9, AROCLOR 1254, Method: STANDARD PLATE inactive; negative | Test System: E. COLI, Strain/Indicator: WP2, Metabolic Activation: NONE, Method: STANDARD PLATE inactive; negative | Test System: E. COLI, Strain/Indicator: WP2, Metabolic Activation: RAT, LIVER, S-9, AROCLOR 1254, Method: STANDARD PLATE inactive; negative

O=[N+]([O-])c1c2ccccc2cc2c1ccc1ccccc12
inactive: [1] inactive; negative | [2] inactive; negative
